Measurements as given in publication PMC11234710, “Comparison of a novel potentiator of CFTR channel activity to ivacaftor in ameliorating mucostasis caused by cigarette smoke in primary human bronchial airway epithelial cells” (Respiratory Research, 2024).

Target: F508del-CFTR (Homo sapiens, UniProt P13569, DEL508-508)
Experiment: fluorescence membrane potential assay in HEK-293 cells expressing F508del-CFTR, […] °C, forskolin activated
Type: cell-based

F508del-CFTR, sequence (P13569 with tags, fused parts or gaps DEL508-508): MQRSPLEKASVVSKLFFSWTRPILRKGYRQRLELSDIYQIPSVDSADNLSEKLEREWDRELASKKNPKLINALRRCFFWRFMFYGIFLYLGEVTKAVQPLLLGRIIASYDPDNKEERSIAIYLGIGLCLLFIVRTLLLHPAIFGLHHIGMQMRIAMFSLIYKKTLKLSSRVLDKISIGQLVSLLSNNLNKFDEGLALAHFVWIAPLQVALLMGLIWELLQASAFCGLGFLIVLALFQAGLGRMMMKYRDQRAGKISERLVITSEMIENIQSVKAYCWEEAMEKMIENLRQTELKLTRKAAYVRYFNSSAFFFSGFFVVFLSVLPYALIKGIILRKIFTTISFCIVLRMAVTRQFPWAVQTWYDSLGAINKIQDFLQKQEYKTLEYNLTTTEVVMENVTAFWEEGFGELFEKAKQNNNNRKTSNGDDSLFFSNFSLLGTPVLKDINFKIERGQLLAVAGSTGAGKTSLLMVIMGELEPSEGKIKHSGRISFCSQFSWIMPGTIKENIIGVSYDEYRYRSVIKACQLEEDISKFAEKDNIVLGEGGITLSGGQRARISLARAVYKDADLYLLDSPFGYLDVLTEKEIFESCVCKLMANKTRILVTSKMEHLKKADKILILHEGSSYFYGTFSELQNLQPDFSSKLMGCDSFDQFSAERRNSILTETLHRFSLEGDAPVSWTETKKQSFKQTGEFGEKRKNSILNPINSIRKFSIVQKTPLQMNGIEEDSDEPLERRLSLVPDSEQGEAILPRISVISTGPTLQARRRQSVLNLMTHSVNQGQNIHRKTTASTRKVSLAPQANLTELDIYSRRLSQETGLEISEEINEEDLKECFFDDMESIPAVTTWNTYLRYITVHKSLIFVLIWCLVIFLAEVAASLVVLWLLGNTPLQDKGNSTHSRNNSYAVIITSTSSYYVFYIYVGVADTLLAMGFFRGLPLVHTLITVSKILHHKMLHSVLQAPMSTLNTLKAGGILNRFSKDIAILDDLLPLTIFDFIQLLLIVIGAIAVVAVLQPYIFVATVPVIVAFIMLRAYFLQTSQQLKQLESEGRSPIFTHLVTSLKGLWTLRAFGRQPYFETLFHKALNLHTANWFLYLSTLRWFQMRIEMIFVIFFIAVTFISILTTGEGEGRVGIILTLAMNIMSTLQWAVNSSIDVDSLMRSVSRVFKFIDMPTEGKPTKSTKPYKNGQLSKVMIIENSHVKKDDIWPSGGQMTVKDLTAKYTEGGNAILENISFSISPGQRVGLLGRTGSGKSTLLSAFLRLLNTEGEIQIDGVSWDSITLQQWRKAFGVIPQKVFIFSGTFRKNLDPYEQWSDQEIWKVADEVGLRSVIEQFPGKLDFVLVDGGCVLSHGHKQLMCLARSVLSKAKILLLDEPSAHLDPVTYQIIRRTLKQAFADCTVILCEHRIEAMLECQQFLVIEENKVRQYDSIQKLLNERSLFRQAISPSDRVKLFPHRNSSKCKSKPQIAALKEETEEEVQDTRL

`CC(C)(C)c1cc(C(C)(C)C)c(NC(=O)c2c[nH]c3ccccc3c2=O)cc1O` [VX-770] was tested, and the EC50 was 384 nM.
